From the C3SDB collision cross section collection

Conditions: [M+H-H2O]+; instrument: TW; calibrated with polyalanine and drug standards
In the case of `NS(=O)(=O)c1cc2c(cc1Cl)NCNS2(=O)=O` [HYDROCHLOROTHIAZIDE], the “collision cross section (N2)” value is reported as 160.8 Å². In the case of `COc1ccc2c(c1)OC[C@@H](Cc1ccc(OC)c(OC)c1)[C@@H]2O` [3-DESHYDROXYSAPPANOL TRIMETHYL ETHER], the “collision cross section (N2)” value is reported as 172.3 Å². For `Cc1cc(O)c(C)c(O)c1C(=O)O` [3-METHYLORSELLINIC ACID], the “collision cross section (N2)” value was 127.5 Å². In the case of `CC(C)CCC[C@@H](C)[C@H]1CC[C@H]2C3=CC[C@H]4C[C@@H](O)CC[C@]4(C)[C@H]3CC[C@]12C` [LATHOSTEROL], the “collision cross section (N2)” value is reported as 204 Å².

Same assay, conditions: [M+H]+; instrument: TW; calibrated with polyalanine and drug standards
With `COc1ccc2c(c1)c(CC(=O)OCC(=O)O)c(C)n2C(=O)c1ccc(Cl)cc1` [ACEMETACIN] the “collision cross section (N2)” value was 191 Å². With `O=c1cc(-c2ccc(O)cc2)oc2cc(O)ccc12` [7,4'-DIHYDROXYFLAVONE] the “collision cross section (N2)” value was 153.2 Å². For `C=CCOC(Cn1ccnc1)c1ccc(Cl)cc1Cl` (centres undefined) [ENILCONAZOLE], the “collision cross section (N2)” value was 165.2 Å². With `CCOc1ccc(NC(=O)CC(C)O)cc1` (centres undefined) [BUCETIN] the “collision cross section (N2)” value was 152.5 Å². In the case of `C=CCc1ccc2c(c1)OCO2` [SAFROLE], the “collision cross section (N2)” value is reported as 138.6 Å². For `COc1ccc2c(c1)OCC(Cc1ccc(OC)c(OC(C)=O)c1)C2=O` (centres undefined) [DEOXYSAPPANONE B 7,3'-DIMETHYL ETHER ACETATE], the “collision cross section (N2)” value was 177.9 Å². For `COc1cc(NS(C)(=O)=O)ccc1Nc1c2ccccc2nc2ccccc12` [AMSACRINE], the “collision cross section (N2)” value was 193.1 Å². With `CCCCNc1cc(C(=O)O)cc(S(N)(=O)=O)c1Oc1ccccc1` [BUMETANIDE] the “collision cross section (N2)” value was 185.1 Å². For `Oc1ccc(Cl)cc1Cc1cc(Cl)ccc1O` [DICHLOROPHENE], the “collision cross section (N2)” value was 147.4 Å². In the case of `C#C[C@]1(O)CC[C@H]2[C@@H]3CCC4=C(CCC(=O)C4)[C@H]3CC[C@@]21C` [NORETHYNODREL], the “collision cross section (N2)” value is reported as 174.6 Å². For `CN(C)CCc1c[nH]c2ccc(C[C@H]3COC(=O)N3)cc12` [ZOLMITRIPTAN], the “collision cross section (N2)” value was 159.7 Å². For `COc1cc2c(cc1OC)[C@@H]1C(=O)c3ccc4oc(C(C)C)cc4c3O[C@@H]1CO2` [ISOROTENONE], the “collision cross section (N2)” value was 195.2 Å². With `Clc1ccc2c(c1)C(N1CCNCC1)=Nc1ccccc1O2` [AMOXAPINE] the “collision cross section (N2)” value was 171.2 Å². In the case of `O=C1OC(CN2CCOCC2)CN1/N=C/c1ccc([N+](=O)[O-])o1` (centres undefined) [FURALTADONE], the “collision cross section (N2)” value is reported as 166.9 Å². With `CO[C@H]1/C=C/O[C@@]2(C)Oc3c(C)c(O)c4c(c3C2=O)C(=O)/C(=C/NN2CCN(C)CC2)C(=C4O)NC(=O)/C(C)=C\C=C\[C@H](C)[C@H](O)[C@@H](C)[C@@H](O)[C@@H](C)[C@H](OC(C)=O)[C@@H]1C` [RIFAMPIN] the “collision cross section (N2)” value was 280.3 Å². With `C[C@H]1COC2=C1C(=O)C(=O)c1c2ccc2c1CCCC2(C)C` [CRYPTOTANSHINONE] the “collision cross section (N2)” value was 168 Å². With `O=c1c(O)c(-c2ccccc2)oc2cc(O)cc(O)c12` [GALANGIN] the “collision cross section (N2)” value was 154.9 Å². For `CCCCC1C(=O)N(c2ccccc2)N(c2ccc(O)cc2)C1=O` (centres undefined) [OXYPHENBUTAZONE], the “collision cross section (N2)” value was 177.2 Å². For `CC(=O)N1CCN(c2ccc(OC[C@H]3CO[C@](Cn4ccnc4)(c4ccc(Cl)cc4Cl)O3)cc2)CC1` [KETOCONAZOLE], the “collision cross section (N2)” value was 214.5 Å². In the case of `Cn1c(=O)[nH]c(=O)c2[nH]cnc21` [3-METHYLXANTHINE], the “collision cross section (N2)” value is reported as 127.9 Å². For `CCN(CC)CCOC(=O)c1ccc(N)cc1` [PROCAINE], the “collision cross section (N2)” value was 154.7 Å². For `O=c1oc2ccccc2c(O)c1Cc1c(O)c2ccccc2oc1=O` [DICUMAROL], the “collision cross section (N2)” value was 182 Å². In the case of `O=c1[nH]c2ccccc2n1CCCN1CCC(n2c(=O)[nH]c3cc(Cl)ccc32)CC1` [DOMPERIDONE], the “collision cross section (N2)” value is reported as 201.8 Å². In the case of `COc1cc(O)c(C(C)=O)c(OC)c1` [XANTHOXYLIN], the “collision cross section (N2)” value is reported as 135.9 Å². With `CC1=C(CC(=O)O)c2cc(F)ccc2/C1=C\c1ccc(S(C)=O)cc1` (centres undefined) [SULINDAC] the “collision cross section (N2)” value was 191.6 Å². For `C[C@@H]1O[C@@H](OC[C@H]2O[C@@H](Oc3c(-c4ccc(OCCO)c(OCCO)c4)oc4cc(OCCO)cc(O)c4c3=O)[C@H](O)[C@@H](O)[C@@H]2O)[C@H](O)[C@H](O)[C@H]1O` [TROXERUTIN], the “collision cross section (N2)” value was 259 Å². With `Nc1nccs1` [AMINOTHIAZOLE] the “collision cross section (N2)” value was 117.2 Å². For `OCCOCCN1CCN(C2=Nc3ccccc3Sc3ccccc32)CC1` [QUETIAPINE], the “collision cross section (N2)” value was 191.5 Å². For `CCOC(=O)c1c(C)cc(O)c(C=O)c1O` [HAEMATOMMIC ACID, ETHYL ESTER], the “collision cross section (N2)” value was 144 Å². With `CC[C@H]1OC(=O)[C@H](C)[C@@H](O[C@H]2C[C@@](C)(OC)[C@@H](O)[C@H](C)O2)[C@H](C)[C@@H](O[C@@H]2O[C@H](C)C[C@H](N(C)C)[C@H]2O)[C@](C)(O)C[C@@H](C)[C@@H]2N[C@@H](COCCOC)O[C@H]([C@H]2C)[C@]1(C)O` [DIRITHROMYCIN] the “collision cross section (N2)” value was 284.2 Å². With `CC(C)[C@@H]1NC(=O)[C@H](C)OC(=O)[C@@H](C(C)C)NC(=O)[C@@H](C(C)C)OC(=O)[C@H](C(C)C)NC(=O)[C@H](C)OC(=O)[C@@H](C(C)C)NC(=O)[C@@H](C(C)C)OC(=O)[C@H](C(C)C)NC(=O)[C@H](C)OC(=O)[C@@H](C(C)C)NC(=O)[C@@H](C(C)C)OC1=O` [VALINOMYCIN] the “collision cross section (N2)” value was 327.4 Å². In the case of `CC1=C2C(=CO[C@H](C)[C@H]2C)C(=O)C(C(=O)O)=C1O` [CITRININ], the “collision cross section (N2)” value is reported as 150.2 Å². With `CCC(=O)O[C@H]1CC[C@H]2[C@@H]3CCC4=CC(=O)CC[C@]4(C)[C@H]3CC[C@]12C` [TESTOSTERONE PROPIONATE] the “collision cross section (N2)” value was 188.2 Å². In the case of `CO[C@]12C[C@@H](COC(=O)c3cncc(Br)c3)CN(C)[C@@H]1Cc1cn(C)c3cccc2c13` [NICERGOLINE], the “collision cross section (N2)” value is reported as 213.8 Å². In the case of `Cc1c(OCC(F)(F)F)ccnc1CS(=O)c1nc2ccccc2[nH]1` (centres undefined) [LANSOPRAZOLE], the “collision cross section (N2)” value is reported as 185.8 Å². For `COc1cccc(-c2cc(=O)c3cc(OC)ccc3o2)c1` [6,3'-DIMETHOXYFLAVONE], the “collision cross section (N2)” value was 162.1 Å². With `COc1c(O)cc2oc3cc(O)c(CC=C(C)C)c(O)c3c(=O)c2c1CC=C(C)C` [alpha-MANGOSTIN] the “collision cross section (N2)” value was 198.8 Å². In the case of `O=c1oc2cc(O)ccc2s1` [TIOXOLONE], the “collision cross section (N2)” value is reported as 130.2 Å². In the case of `COc1ccc2oc(-c3ccccc3OC)cc(=O)c2c1` [6,2'-DIMETHOXYFLAVONE], the “collision cross section (N2)” value is reported as 161.4 Å². In the case of `CC1(C)S[C@@H]2[C@H](NC(=O)[C@H](N)c3ccc(O)cc3)C(=O)N2[C@H]1C(=O)O` [AMOXICILLIN], the “collision cross section (N2)” value is reported as 187.4 Å². For `Nc1ccc(S(=O)(=O)NC(=O)c2ccccc2)cc1` [SULFABENZAMIDE], the “collision cross section (N2)” value was 158.2 Å². For `CC(=O)N(c1onc(C)c1C)S(=O)(=O)c1ccc(N)cc1` [SULFISOXAZOLE ACETYL], the “collision cross section (N2)” value was 161.2 Å². For `CC(=O)Nc1cc([As](=O)(O)O)ccc1O` [ACETARSOL], the “collision cross section (N2)” value was 151.5 Å². With `COc1cc2ccc(=O)oc2c2ccoc12` [SPHONDIN] the “collision cross section (N2)” value was 139.9 Å². With `CN1C(=O)CCS(=O)(=O)C1c1ccc(Cl)cc1` (centres undefined) [CHLORMEZANONE] the “collision cross section (N2)” value was 158.2 Å². With `CC(O)Cn1cnc2c1c(=O)n(C)c(=O)n2C` (centres undefined) [PROXYPHYLLINE] the “collision cross section (N2)” value was 149.1 Å². For `CC1(C)O[C@@H]2C[C@H]3[C@@H]4C[C@H](F)C5=CC(=O)C=C[C@]5(C)[C@H]4[C@@H](O)C[C@]3(C)[C@]2(C(=O)CO)O1` [FLUNISOLIDE], the “collision cross section (N2)” value was 199.8 Å². With `Nc1nc(=S)c2[nH]cnc2[nH]1` [THIOGUANINE] the “collision cross section (N2)” value was 129.7 Å². With `C[C@]12C=CC(=O)C=C1CC[C@@H]1[C@@H]2[C@@H](O)C[C@@]2(C)[C@H]1CC[C@]2(O)C(=O)COC(=O)CCC(=O)O` [PREDNISOLONE HEMISUCCINATE] the “collision cross section (N2)” value was 210.3 Å². In the case of `CC(=O)OCC(=O)[C@@]1(OC(C)=O)[C@@H](C)C[C@H]2[C@@H]3C[C@H](F)C4=CC(=O)C=C[C@]4(C)[C@@]3(F)[C@@H](O)C[C@@]21C` [DIFLORASONE DIACETATE], the “collision cross section (N2)” value is reported as 209.5 Å². In the case of `Cn1c(=O)c2c(ncn2C)n(C)c1=O` [CAFFEINE], the “collision cross section (N2)” value is reported as 136.9 Å². For `CCCCc1nc(Cl)c(CO)n1Cc1ccc(-c2ccccc2-c2nn[nH]n2)cc1` [LOSARTAN], the “collision cross section (N2)” value was 199.2 Å². In the case of `COc1cc(O)cc(OC)c1OC` [ANTIAROL], the “collision cross section (N2)” value is reported as 133.5 Å². With `COc1cc2oc3cc(OC)c(OC)c(CC=C(C)C)c3c(=O)c2c(O)c1CC=C(C)C` [1-HYDROXY-3,6,7-TRIMETHOXY-2,8-DIPRENYLXANTHONE] the “collision cross section (N2)” value was 209.7 Å².

Same assay, conditions: [M+Na]+; instrument: TW; calibrated with polyalanine and drug standards
With `COC(=O)[C@@H]1OC(=O)C2OC23[C@@]1(C)CCC1[C@@]2(C)CCC(=O)C(C)(C)C2C[C@@H](OC(C)=O)[C@]13C` (some centres undefined) [DIHYDROGEDUNIC ACID, METHYL ESTER] the “collision cross section (N2)” value was 216.6 Å². For `O=C1[C@H](CC[C@H](O)c2ccc(F)cc2)[C@@H](c2ccc(O)cc2)N1c1ccc(F)cc1` [EZETIMIBE], the “collision cross section (N2)” value was 213.6 Å². In the case of `C[C@H](CCC(=O)O)[C@H]1CC[C@H]2[C@@H]3CC[C@@H]4C[C@H](O)CC[C@]4(C)[C@H]3C[C@H](O)[C@]12C` [DEOXYCHOLIC ACID], the “collision cross section (N2)” value is reported as 196.7 Å². With `O=Cc1ccccc1O[C@@H]1O[C@H](CO)[C@@H](O)[C@H](O)[C@H]1O` [HELICIN] the “collision cross section (N2)” value was 161.4 Å². For `CC[C@H](C)[C@H]1O[C@]2(C=C[C@@H]1C)C[C@@H]1C[C@@H](C/C=C(\C)[C@@H](O[C@H]3C[C@H](OC)[C@@H](O[C@H]4C[C@H](OC)[C@@H](O)[C@H](C)O4)[C@H](C)O3)[C@@H](C)/C=C/C=C3\CO[C@@H]4[C@H](O)C(C)=C[C@@H](C(=O)O1)[C@]34O)O2` [Abamectin B1A], the “collision cross section (N2)” value was 290.5 Å².

Same assay, conditions: [M]+; instrument: TW; calibrated with polyalanine and drug standards
In the case of `C=C1CC[C@H]2C(C)(C)CCC[C@]2(C)[C@H]1CC/C(C)=C/Cn1c[n+](C)c2ncnc(N)c21` [AGELASINE D], the “collision cross section (N2)” value is reported as 212.2 Å².
